Results from ChEMBL document CHEMBL1201862, “PubChem BioAssay data set” (2004).
Activity calls are given as the source filed them.

Key:
[1] = target: Intestinal-type alkaline phosphatase (Mus musculus, UniProt P24822); experiment: PubChem AID 488785; assay type: functional
[2] = target: T1, Alkaline phosphatase, tissue-nonspecific isozyme (Homo sapiens, UniProt P05186); experiment: TNAP enzyme inhibition by screening hits, dose response, selectivity assay for mouse IAP inhibitor project, biochemical, human TNAP, uHTS hits (AID 488906); assay type: functional
T1 sequence (P05186 whole entry): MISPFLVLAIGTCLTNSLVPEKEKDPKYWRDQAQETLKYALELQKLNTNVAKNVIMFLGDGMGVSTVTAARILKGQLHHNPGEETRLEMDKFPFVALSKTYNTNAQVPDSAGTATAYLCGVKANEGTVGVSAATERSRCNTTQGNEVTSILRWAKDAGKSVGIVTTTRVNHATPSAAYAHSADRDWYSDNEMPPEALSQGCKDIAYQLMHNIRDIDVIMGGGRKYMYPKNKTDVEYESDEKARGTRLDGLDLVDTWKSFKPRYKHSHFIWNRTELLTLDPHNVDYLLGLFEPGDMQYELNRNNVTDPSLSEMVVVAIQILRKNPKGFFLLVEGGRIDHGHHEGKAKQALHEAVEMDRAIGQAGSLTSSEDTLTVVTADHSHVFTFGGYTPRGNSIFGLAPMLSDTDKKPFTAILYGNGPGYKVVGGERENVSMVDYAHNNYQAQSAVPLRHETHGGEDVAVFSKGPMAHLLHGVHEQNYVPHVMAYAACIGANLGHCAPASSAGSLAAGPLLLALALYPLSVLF

[3] = target: 72 kDa type IV collagenase (Homo sapiens, UniProt P08253); experiment: Dose Response validation of uHTS RPN11 inhibitor hits using a MMP-2 Fluorescence assay.; assay type: functional
[4] = target: Multidrug resistance protein CDR2 (Candida albicans (strain SC5314 / ATCC MYA-2876) (Yeast), UniProt P78595); experiment: inhibition of Nile Red efflux via Candida CDR2 – S. cerevisiae AD1-8u, singleplex, Cherry Pick1 hits, dose response (AID 588604); assay type: functional
[5] = target: Induced myeloid leukemia cell differentiation protein Mcl-1 (Homo sapiens, UniProt Q07820); assay type: functional
[6] = target: 26S proteasome non-ATPase regulatory subunit 14 (Homo sapiens, UniProt O00487); experiment: inhibition of proteasome subunit RPN11 – biochemical, fluorescence polarization, uHTS hits, confirmation (AID 602368); assay type: functional
[7] = target: T2, Rac GTPase-activating protein 1 (Homo sapiens, UniProt Q9H0H5); experiment: blockers of MgcRacGAP-driven Rac1 GTP hydrolysis – biochemical, ADP Hunter fluorescence, primary and confirmatory, confirmation (AID 624330); assay type: functional
T2 sequence (Q9H0H5 whole entry): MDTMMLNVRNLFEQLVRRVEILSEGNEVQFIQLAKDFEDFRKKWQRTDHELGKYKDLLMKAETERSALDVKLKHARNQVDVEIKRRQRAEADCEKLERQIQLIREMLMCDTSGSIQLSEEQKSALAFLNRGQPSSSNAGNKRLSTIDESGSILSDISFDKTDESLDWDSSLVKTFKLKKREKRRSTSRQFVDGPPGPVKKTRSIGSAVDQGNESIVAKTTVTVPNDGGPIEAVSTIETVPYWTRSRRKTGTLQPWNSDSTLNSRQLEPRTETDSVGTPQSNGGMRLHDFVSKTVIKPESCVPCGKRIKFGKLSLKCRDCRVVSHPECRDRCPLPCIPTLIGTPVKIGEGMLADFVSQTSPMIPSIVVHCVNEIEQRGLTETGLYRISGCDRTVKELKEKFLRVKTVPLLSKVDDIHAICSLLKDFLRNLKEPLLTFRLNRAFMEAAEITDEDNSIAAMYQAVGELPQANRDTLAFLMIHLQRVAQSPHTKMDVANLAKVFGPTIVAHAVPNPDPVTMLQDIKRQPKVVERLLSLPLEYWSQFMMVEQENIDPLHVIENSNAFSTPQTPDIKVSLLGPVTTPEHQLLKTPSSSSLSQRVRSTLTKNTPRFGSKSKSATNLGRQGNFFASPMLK

[8] = target: Dual specificity tyrosine-phosphorylation-regulated kinase 1A (Rattus norvegicus, UniProt Q63470); assay type: biochemical, Homo sapiens
Prothrombin = Prothrombin (Bos taurus, UniProt P00735); experiment: thrombin protease inhibitors – biochemical, fluorescence polarization, uHTS hits, dose response (AID 602369); assay type: functional
[9] = target: Intestinal-type alkaline phosphatase (Homo sapiens, UniProt P09923); experiment: inhibition of human intestinal alkaline phosphatase – biochemical, dose response (AID 488876); assay type: functional
[10] = target: T3, Neuropeptides B/W receptor type 1 (Homo sapiens, UniProt P48145); experiment: human NPBW1 receptor blockade, IC50 – cell-based, fluorescence, dose response, set 5, late-stage follow-up (AID 588566); assay type: functional
T3 sequence (P48145 whole entry): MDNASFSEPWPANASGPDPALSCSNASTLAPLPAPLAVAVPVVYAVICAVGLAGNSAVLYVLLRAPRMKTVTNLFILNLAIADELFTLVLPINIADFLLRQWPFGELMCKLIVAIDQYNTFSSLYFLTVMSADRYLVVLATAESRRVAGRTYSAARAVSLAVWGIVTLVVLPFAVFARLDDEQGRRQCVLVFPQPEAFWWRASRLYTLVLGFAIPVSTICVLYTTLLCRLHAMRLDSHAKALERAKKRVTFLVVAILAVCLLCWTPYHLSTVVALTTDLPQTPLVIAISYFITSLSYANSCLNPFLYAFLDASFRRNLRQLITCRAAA

[11] = target: Melanin-concentrating hormone receptor 1 (Homo sapiens, UniProt Q99705); experiment: Late-stage fluorescence-based counterscreen for antagonists of the G-protein coupled receptor 7 (GPR7): cell-based dose response assay to identify antagonists of the melanin-concentrating hormone receptor 1 (MCHR1) Set 5.; assay type: functional
[12] = target: Homeodomain-interacting protein kinase 2 (Homo sapiens, UniProt Q9H2X6); assay type: functional;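 note: measured within a kinome-wide kinase profiling panel, HIPK2 being one panel member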
[13] = target: Mitogen-activated protein kinase kinase kinase kinase 4 (Homo sapiens, UniProt O95819); assay type: functional
[14] = target: Glycogen synthase kinase-3 beta (Homo sapiens, UniProt P49841); assay type: functional;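 note: value comes from a broad kinome profiling panel, with GSK3B as the panel member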
[15] = target: Dual specificity protein kinase CLK4 (Homo sapiens, UniProt Q9HAZ1); assay type: functional
[16] = target: Interleukin-1 receptor-associated kinase 4 (Homo sapiens, UniProt Q9NWZ3); assay type: functional
[17] = target: Cell division cycle 7-related protein kinase (Homo sapiens, UniProt O00311); assay type: functional;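 note: value obtained from a kinome-wide kinase panel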
[18] = target: T4, Protein disulfide-isomerase (Homo sapiens, UniProt P07237); experiment: inhibition of PDI-mediated insulin reduction – biochemical, turbidity, absorbance, cherry-picked samples, set 2, dose response (AID 624274); assay type: functional
[19] = target: T4, Protein disulfide-isomerase; experiment: inhibition of PDI-driven insulin aggregation – biochemical, turbidity, absorbance, cherry-picked samples, dose response (AID 602350); assay type: functional
[20] = target: DNA dC->dU-editing enzyme APOBEC-3G (Homo sapiens, UniProt Q9HC16); experiment: inhibition of APOBEC3G ssDNA deamination – biochemical, fluorescence, single-stranded DNA substrate, SAR follow-up (AID 602136); assay type: functional; conditions: read-out: IC50_Mean
[21] = cAMP pathway inhibition in counterscreen cell line – TR-FRET cAMP detection, counter-screen for MC4R biased antagonist project, dose response (AID 602305); assay type: functional, cell-based;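 note: U2OS cells stimulated with forskolin near its EC80 as the cAMP inducer; potency is for inhibition of forskolin-stimulated cAMP signaling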
[22] = target: T5, Replicative DNA helicase DnaB (Mycobacterium tuberculosis, UniProt P9WMR3); experiment: DnaB intein splicing inhibitors, dose response, biochemical, cell-free fluorescence (AID 449749); assay type: functional
T5 sequence (P9WMR3 whole entry): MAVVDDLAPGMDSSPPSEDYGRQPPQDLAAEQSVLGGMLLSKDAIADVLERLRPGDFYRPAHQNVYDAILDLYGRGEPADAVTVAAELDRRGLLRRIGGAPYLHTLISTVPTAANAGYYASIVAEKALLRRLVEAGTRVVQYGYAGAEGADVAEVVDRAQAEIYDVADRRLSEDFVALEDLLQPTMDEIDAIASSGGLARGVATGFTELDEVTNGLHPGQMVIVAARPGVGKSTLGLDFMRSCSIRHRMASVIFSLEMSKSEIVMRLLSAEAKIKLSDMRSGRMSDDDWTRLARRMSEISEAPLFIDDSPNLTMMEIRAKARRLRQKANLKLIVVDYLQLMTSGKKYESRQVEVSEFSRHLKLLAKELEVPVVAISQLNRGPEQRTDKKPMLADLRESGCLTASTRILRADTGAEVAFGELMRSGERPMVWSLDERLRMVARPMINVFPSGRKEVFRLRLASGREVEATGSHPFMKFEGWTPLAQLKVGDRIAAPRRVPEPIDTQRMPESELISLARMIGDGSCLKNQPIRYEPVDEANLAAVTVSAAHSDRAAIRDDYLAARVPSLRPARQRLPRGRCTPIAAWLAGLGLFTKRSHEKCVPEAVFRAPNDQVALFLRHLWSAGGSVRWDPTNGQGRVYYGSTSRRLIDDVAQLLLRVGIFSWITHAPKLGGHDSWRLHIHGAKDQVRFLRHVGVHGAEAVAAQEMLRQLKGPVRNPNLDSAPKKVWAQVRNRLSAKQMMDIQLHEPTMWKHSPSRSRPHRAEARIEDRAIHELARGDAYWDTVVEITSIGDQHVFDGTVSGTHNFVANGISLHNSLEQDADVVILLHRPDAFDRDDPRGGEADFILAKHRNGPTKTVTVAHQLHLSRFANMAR

Protein RecA = target: T6, Protein RecA (Mycobacterium tuberculosis, UniProt P9WHJ3); experiment: Fluorescence Cell-Free Homogeneous Dose Retest to Identify Inhibitors of RecA-Intein Splicing Activity. [Related pubchem assays (depositor defined):AID2097, AID2223, AID489010, AID492950]; assay type: functional
T6 sequence (P9WHJ3 whole entry): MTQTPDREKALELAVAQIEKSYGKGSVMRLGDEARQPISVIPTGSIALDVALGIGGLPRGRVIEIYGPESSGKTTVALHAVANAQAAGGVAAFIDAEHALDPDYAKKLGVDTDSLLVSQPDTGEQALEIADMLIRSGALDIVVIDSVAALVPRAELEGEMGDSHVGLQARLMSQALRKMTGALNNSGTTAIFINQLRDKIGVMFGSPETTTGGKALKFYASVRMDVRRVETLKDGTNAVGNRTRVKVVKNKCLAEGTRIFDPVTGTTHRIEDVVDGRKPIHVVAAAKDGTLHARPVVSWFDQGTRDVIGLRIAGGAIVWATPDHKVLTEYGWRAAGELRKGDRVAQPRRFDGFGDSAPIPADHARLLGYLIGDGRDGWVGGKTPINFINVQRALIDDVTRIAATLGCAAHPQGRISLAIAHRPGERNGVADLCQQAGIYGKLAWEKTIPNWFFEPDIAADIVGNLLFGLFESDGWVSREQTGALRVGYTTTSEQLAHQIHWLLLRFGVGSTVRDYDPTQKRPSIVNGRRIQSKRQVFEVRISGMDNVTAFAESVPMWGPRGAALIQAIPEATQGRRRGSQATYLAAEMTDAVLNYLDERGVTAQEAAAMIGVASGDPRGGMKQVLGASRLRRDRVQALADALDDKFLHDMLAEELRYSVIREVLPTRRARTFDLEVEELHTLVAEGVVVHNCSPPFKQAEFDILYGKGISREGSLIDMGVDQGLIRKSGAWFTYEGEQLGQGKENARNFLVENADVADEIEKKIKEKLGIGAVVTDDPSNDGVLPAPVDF

[23] = target: DNA dC->dU-editing enzyme APOBEC-3A (Homo sapiens, UniProt P31941); experiment: SAR analysis of small molecule inhibitors of APOBEC3A DNA Deaminase via a fluorescence-based single-stranded DNA deaminase assay.; assay type: functional; conditions: read-out: IC50_Mean
Melanocortin receptor 4 = Melanocortin receptor 4 (Homo sapiens, UniProt P32245); experiment: inhibitors of MC4R cAMP signaling – cell-based, TR-FRET, biased antagonists, dose response (AID 602298); assay type: functional;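 note: antagonist potency against agonist-stimulated cAMP production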
Sequence of Melanocortin receptor 4 (P32245 whole entry): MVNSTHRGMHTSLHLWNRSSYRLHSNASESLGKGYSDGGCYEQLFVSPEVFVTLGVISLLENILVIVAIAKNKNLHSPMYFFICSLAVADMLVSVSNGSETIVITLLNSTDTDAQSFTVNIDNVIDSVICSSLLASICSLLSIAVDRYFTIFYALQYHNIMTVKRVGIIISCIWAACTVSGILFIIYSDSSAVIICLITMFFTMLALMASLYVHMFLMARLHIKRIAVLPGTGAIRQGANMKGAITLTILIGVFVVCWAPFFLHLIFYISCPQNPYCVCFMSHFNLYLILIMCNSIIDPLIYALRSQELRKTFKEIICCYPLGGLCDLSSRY

T4 sequence (P07237 whole entry): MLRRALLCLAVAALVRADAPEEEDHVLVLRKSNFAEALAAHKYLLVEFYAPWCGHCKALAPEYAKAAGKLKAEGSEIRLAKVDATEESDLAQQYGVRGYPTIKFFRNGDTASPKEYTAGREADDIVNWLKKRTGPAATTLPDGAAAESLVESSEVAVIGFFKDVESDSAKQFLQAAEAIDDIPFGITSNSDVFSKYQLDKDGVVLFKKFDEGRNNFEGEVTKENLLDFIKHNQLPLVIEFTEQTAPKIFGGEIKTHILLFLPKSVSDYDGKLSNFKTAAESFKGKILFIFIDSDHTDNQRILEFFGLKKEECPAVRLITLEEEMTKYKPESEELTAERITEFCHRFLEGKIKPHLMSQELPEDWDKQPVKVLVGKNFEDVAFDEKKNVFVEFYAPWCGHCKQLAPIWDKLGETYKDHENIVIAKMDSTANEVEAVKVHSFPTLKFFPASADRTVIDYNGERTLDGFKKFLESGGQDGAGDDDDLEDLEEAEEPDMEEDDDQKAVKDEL
Sequence of Cell division cycle 7-related protein kinase (O00311 whole entry): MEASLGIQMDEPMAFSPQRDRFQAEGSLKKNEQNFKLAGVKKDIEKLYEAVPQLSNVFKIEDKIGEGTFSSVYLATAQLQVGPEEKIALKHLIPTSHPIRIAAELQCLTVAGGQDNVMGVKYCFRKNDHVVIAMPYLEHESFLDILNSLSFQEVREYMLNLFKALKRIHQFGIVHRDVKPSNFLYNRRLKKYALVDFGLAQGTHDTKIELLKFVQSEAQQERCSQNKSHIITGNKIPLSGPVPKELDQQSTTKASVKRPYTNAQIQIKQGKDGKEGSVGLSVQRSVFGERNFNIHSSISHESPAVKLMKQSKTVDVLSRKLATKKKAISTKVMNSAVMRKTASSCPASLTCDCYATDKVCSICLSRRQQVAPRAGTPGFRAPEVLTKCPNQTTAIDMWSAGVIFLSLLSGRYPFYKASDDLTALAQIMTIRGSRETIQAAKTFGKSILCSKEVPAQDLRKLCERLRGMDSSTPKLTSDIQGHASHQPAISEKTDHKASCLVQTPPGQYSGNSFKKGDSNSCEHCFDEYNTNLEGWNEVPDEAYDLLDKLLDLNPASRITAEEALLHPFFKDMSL
Sequence of DNA dC->dU-editing enzyme APOBEC-3A (P31941 whole entry): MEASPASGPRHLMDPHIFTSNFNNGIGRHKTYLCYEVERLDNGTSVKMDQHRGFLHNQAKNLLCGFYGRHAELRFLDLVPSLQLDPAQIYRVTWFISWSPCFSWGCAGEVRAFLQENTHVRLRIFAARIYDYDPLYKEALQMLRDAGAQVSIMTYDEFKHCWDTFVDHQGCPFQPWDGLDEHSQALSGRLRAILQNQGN
Sequence of 26S proteasome non-ATPase regulatory subunit 14 (O00487 whole entry): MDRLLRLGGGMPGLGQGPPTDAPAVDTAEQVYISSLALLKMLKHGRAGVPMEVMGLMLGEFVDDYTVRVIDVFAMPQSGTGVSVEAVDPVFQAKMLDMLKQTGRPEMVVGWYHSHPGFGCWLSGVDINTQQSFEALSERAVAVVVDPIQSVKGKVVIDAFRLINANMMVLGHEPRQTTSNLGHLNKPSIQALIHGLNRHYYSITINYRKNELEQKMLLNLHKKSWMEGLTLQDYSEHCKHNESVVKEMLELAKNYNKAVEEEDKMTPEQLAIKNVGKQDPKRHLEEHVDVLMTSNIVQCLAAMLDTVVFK
Sequence of 72 kDa type IV collagenase (P08253 whole entry): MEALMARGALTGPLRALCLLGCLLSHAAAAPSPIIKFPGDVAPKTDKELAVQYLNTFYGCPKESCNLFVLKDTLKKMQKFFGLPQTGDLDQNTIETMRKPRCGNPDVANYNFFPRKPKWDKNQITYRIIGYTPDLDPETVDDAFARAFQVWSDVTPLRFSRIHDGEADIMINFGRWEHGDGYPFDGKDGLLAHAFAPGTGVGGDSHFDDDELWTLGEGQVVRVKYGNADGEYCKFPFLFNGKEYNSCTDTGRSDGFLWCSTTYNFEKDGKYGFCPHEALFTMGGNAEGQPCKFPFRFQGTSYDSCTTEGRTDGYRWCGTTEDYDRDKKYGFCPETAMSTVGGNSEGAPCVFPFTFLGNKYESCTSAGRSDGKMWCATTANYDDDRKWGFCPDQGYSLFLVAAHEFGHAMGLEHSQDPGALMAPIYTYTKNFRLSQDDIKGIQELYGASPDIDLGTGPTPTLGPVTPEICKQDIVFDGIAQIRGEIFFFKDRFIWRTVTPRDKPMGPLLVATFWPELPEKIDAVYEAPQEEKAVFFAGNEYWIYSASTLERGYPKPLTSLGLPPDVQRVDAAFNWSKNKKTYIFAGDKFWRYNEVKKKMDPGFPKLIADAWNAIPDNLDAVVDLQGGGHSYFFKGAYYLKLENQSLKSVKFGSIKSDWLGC
Sequence of Intestinal-type alkaline phosphatase (Homo sapiens, UniProt P09923) (P09923 whole entry): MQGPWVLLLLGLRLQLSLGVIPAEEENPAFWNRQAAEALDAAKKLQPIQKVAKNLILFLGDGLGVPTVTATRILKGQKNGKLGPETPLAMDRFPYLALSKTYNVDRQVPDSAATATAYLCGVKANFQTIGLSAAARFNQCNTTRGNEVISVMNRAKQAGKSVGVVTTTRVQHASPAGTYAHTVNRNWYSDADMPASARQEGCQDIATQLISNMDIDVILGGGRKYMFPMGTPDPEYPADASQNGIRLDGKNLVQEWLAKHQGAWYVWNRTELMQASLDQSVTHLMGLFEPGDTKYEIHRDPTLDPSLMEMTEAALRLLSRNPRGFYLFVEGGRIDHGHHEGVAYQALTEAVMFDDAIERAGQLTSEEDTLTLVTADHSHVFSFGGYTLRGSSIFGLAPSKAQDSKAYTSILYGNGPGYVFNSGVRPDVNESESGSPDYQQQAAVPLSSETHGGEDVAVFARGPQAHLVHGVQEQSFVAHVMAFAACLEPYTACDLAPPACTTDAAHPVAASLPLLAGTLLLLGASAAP
Sequence of Glycogen synthase kinase-3 beta (P49841 whole entry): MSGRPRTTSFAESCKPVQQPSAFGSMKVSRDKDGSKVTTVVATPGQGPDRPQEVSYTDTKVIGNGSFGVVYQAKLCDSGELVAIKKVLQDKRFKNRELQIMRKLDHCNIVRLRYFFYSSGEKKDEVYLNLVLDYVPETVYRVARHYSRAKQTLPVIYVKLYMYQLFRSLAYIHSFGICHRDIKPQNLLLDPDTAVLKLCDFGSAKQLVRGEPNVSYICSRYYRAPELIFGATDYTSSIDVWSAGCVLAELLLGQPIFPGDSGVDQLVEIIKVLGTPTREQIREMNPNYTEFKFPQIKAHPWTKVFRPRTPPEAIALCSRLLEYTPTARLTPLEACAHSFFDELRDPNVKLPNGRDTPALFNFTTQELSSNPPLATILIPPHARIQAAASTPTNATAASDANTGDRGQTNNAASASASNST
Sequence of Dual specificity protein kinase CLK4 (Q9HAZ1 whole entry): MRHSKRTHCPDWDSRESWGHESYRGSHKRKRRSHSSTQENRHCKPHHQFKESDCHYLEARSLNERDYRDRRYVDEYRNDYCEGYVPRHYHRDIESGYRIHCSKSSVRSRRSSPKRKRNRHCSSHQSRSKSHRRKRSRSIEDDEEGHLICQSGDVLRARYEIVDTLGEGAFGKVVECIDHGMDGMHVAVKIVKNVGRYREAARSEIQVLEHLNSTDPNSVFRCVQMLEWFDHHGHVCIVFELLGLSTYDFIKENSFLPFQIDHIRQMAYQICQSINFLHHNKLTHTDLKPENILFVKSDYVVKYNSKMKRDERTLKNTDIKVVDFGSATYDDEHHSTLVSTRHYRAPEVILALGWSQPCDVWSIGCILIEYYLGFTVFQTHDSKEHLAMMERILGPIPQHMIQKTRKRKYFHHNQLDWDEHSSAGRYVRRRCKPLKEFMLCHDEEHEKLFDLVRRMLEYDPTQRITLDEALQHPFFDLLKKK
Sequence of Induced myeloid leukemia cell differentiation protein Mcl-1 (Q07820 whole entry): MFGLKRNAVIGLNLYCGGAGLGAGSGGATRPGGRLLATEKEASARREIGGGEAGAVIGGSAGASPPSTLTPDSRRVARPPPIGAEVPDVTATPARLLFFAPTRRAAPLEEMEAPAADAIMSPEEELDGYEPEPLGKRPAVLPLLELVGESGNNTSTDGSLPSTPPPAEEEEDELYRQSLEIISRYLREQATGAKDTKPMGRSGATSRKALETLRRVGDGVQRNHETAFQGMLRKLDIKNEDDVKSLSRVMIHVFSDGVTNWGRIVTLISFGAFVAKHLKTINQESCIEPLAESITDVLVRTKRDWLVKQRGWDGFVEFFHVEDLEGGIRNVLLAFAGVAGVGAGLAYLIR
Sequence of Interleukin-1 receptor-associated kinase 4 (Q9NWZ3 whole entry): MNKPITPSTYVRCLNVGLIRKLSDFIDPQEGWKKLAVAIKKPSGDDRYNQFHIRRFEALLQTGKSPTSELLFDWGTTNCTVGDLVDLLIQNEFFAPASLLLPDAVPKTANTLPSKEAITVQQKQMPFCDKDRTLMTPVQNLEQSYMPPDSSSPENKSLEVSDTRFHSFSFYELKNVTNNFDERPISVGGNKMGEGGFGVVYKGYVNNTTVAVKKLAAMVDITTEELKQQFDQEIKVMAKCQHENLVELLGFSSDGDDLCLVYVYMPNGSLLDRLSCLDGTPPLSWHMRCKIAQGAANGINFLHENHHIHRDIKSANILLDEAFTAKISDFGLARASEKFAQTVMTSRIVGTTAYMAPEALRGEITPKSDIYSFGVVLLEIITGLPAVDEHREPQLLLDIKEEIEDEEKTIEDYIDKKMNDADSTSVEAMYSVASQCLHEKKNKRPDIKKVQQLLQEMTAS

O=C1/C(=C/c2ccc(O)c(O)c2)Oc2cc(O)ccc21 [SULFURETIN]
IC50 [1]: 19.7 µM (active) | IC50 [2]: 52.9 µM (active) | IC50 [3]: > 100 µM (inactive) | EC50 [4]: 0.424 µM (active) | IC50 [5]: 1.53 µM (active) | IC50 [6]: 23.8 µM (active) | IC50 [7]: 20.6 µM (active) | AC50 [8]: 2.32 µM (active) | IC50 (Prothrombin): 21.7 µM (active) | IC50 [9]: 66.3 µM (active)

N#CC(c1ccccc1)c1cnn(Cc2cccc3ccccc23)c(=O)c1Cl (stereo unspecified)
IC50 [10]: ~0.702 µM (active) | IC50 [11]: > 20 µM (inactive)

CN(C)CCCOc1cc(-c2ccncc2)cc2[nH]nc(N)c12
Ki [12]: > 3.16 µM (inactive) | Ki [13]: 0.794 µM (active) | Ki [14]: 6.31 µM (active) | Ki [15]: 0.0794 µM (active) | Ki [16]: 0.158 µM (active) | Ki [17]: 0.0126 µM (active)

CC(NCC(O)COCc1ccc(Cl)cc1)c1ccccc1 (stereo unspecified)
AC50 [18]: 0.009 µM (active) | AC50 [19]: < 0.009 µM (active)

CS(=O)(=O)c1nc([N+](=O)[O-])nn1CCCc1ccccc1
IC50 [20]: > 99 µM (inactive) | IC50 [21]: > 64.5 µM (inactive) | AC50 [22]: 7.7 µM (active) | EC50 (Protein RecA): 14.5 µM (active) | IC50 [23]: > 99 µM (inactive) | IC50 (Melanocortin receptor 4): > 64.5 µM (inactive)
